# Where a chain is given by its changes, count along the chain named.
# Key:
# Assay in all cases: Mutant β-galactosidase activity in model cells, 4 days culture
# Assay type in all cases: cell-based
# [1] = biological target: T1, human mutant β-galactosidase R482H (Homo sapiens, UniProt P16278, R482H)
# T1 construct: expressed in transfected cells; host or cells: SV40-immortalized skin fibroblasts of a β-galactosidase-deficient knockout mouse
# T1 sequence (P16278 29-677 R482H): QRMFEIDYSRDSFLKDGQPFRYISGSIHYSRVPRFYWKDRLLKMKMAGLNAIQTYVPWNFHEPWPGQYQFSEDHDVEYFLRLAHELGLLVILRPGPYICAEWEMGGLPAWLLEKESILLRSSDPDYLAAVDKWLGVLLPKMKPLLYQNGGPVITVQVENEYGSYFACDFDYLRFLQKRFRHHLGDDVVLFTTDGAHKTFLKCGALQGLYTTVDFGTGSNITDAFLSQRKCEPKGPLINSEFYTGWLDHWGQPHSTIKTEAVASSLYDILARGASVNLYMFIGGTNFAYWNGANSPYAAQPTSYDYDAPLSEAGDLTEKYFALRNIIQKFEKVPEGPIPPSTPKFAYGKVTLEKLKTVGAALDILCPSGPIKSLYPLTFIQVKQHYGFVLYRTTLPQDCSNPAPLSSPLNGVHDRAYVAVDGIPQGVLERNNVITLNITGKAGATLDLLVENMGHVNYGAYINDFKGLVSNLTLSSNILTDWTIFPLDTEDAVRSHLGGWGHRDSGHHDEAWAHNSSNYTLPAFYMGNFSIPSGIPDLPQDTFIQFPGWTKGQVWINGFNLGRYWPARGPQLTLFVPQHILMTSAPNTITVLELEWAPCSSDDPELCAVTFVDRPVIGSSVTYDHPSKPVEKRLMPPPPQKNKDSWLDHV
# Excerpt: (§1) Cultured skin fibroblasts of a β-galactosidase-deficient knockout mouse was immortalized by introducing an SV40 viral gene, and enzyme genes integrated into pSV2neo and an expression vector were also introduced simultaneously, thereby establishing a model cell (Brain Dev., 23(5), 284-287, 2001). The genes used are human normal (GP8) and mutant β-galactosidase gene Y316C, G123R (infantile GM1-gangliosidosis), R201C (juvenile GM1-gangliosidosis), 151T, T82M, R201H, R263S, R457Q (adult GM1-gangliosidosis), W273L, Y83H, R482H and R482C (Morquio-B disease) (Hum. Genet., 93(2), 109-114, 1994).
# (§2) As a control substance, 0.5 mM N-(n-butyl)-deoxygalactonojirimycin (NB-DGJ: The Journal of Biological Chemistry, 269, 27108-27114 (1994)) was used, and the substance 18 of the present invention was used in an amount of 0.2 μM.
# (§3) Specifically, after culturing the model cell for 4 days using a cell culture medium (10% FCS DMEM) containing the substance 18 of the present invention, the resulting cells were recovered and diluted such that the amount of protein in the suspension became a predetermined level, and then enzyme activity in the diluted suspension was measured. Using 4-methylumbelliferyl-β-D-galactopyranoside as the fluorescent substrate, the enzyme activity during 30 minutes was measured at 37° C.
# [2] = biological target: T2, human mutant β-galactosidase I51T (Homo sapiens, UniProt P16278, I51T)
# T2 construct: expressed in transfected cells; host or cells: SV40-immortalized skin fibroblasts of a β-galactosidase-deficient knockout mouse
# T2 sequence (P16278 29-677 I51T): T1 sequence (P16278 29-677 R482H) with I23T, H454R
# Excerpt: as §1, §2, §3
# [3] = biological target: T3, human mutant β-galactosidase R457Q (Homo sapiens, UniProt P16278, R457Q)
# T3 construct: expressed in transfected cells; host or cells: SV40-immortalized skin fibroblasts of a β-galactosidase-deficient knockout mouse
# T3 sequence (P16278 29-677 R457Q): T1 sequence (P16278 29-677 R482H) with R429Q, H454R
# Excerpt: as §1, §2, §3
"enzyme activity, Control ([1]; transferred gene R482H, control substance 0.5 mM NB-DGJ)","enzyme activity, Control ([2]; transferred gene I51T, control substance 0.5 mM NB-DGJ)","enzyme activity, Control ([3]; transferred gene R457Q, control substance 0.5 mM NB-DGJ)",Structure (SMILES),"Relative ratio (×100%) ([1]; R482H, substance 18 vs control)","enzyme activity ([1]; transferred gene R482H, 0.2 μM, 4 days)","Relative ratio (×100%) ([2]; I51T, substance 18 vs control)","enzyme activity ([2]; transferred gene I51T, 0.2 μM, 4 days)","enzyme activity increased in comparison with the control ([3]; R457Q, 0.2 μM) [%]","Relative ratio (×100%) ([3]; R457Q, substance 18 vs control)","enzyme activity ([3]; transferred gene R457Q, 0.2 μM, 4 days)"
0.50,1.42,5.84,"CCCCN1C[C@H](O)[C@@H](O)[C@@H](O)[C@H]1CO [Control, N-(n-butyl)-deoxygalactonojirimycin, reference compound]",–,–,–,–,–,–,–
–,–,–,"CCCCCCCCN[C@@H]1C=C(CO)[C@H](O)C(O)[C@@H]1O (stereo partly drawn) [Substance 18, N-octyl-5a-carba-α-L-arabino-hexo-5(5a)-enopyranosylamine]",2.50 ×100%,1.24,3.08 ×100%,4.37,≥ 150,2.42 ×100%,14.17
